Test results as given in patent US20040161781A1, “Compositions and methods for identifying thymidylate synthase modulators” (priority 2002, published 2004).
Where two headings read alike, the source gives them in different places.

Key:
[1] = test system: thymidylate synthase (TS); assay: Down-regulation of TS in H630 cells treated with acyl-homoserine lactones (Western blotting); type: cell-based, human; details: overnight (approximately 16 hours)
Text: FIG. 6. A representation of the ability of acyl homoserine lactones to down-regulate TS in H630 cells.
The signaling molecules produced by the rTS signaling pathway cause a decrease in the amount of TS found in cells. These signaling molecules can simulate the effects of the compound 3-oxo-hexanoyl homoserine lactone in activating the receptor for this compound when it is present in a recombinant bacteria. […] This hypothesis was validated by the results of an experiment portrayed in FIG. 6. Accordingly, the down-regulation of TS in H630 (human colon cancer) cells treated with acyl-homoserine lactones was tested. Cells growing in RPMI 1640 culture medium, supplemented with 10% dialyzed fetal bovine serum at 37° C. in an atmosphere of 95:5 air:CO2. The compounds with the structures shown were added to the cells and allowed to incubate overnight (approximately 16 hours). The cells were extracted and TS measured by Western blotting as described. The compounds from top to bottom are: (1) 3-hydroxy butanoyl homoserine lactone, (2) butanoyl homoserine lactone; (3) 3-oxo-hexanoyl homoserine lactone; (4) d, 1-hexanoyl homoserine lactone, and (5) 1-homoserine lactone. Tubulin is shown as a loading standard.

[2] = test system: thymidylate synthase (TS); assay: Luciferase assay in H630 cells transiently transfected with pG3E1-2TBE; type: cell-based, human; details: 5-FU 10 μM for 24 hr; H630 cells transfected with pG3E1-2TBE
Method: FIGS. 2a-2c. Activity of the EGR-I promoter and TBEs in pGL3-basic plasmid. FIG. 2a—the EGR-I promoter was added upstream of the luciferase reporter gene of pGL3-basic plasmid as described in Example 1. The resultant construct pG3E1 was transfected into H630 cells and the luciferase assay was performed 24 hr later. Control: mock transfection; pG3E1: 5 μg of pG3E1 plasmid DNA per 2×10^6 cells was used for transfection. RLU: relative light units. In FIGS. 2b and 2c, TS-binding elements were synthesized and added into pG3E1. The pG3E1-2TBE (5 μg) was transfected into six replicate aliquots of H630 cells (2×10^6) and plated separately. After 24 hr, three of transfected samples were treated with 5-FU (10 μM) for an additional 24 hr (FIG. 2c), the cells were then processed for the luciferase assay according to the manufacturer's instructions. Control: mock transfection; pG3E1: transfected with pG3E1; pG3E1+T: transfected with pG3E1-2TBE only (FIG. 2b). P+T+FU: transfected with pG3E1-2TBE and 24 hr following transfection treated with 5-FU (FIG. 2c). Data are the average of triplicate experiments±S.D.
This example describes the transient transfection of cells with the construct of the present invention. […]

[3] = test system: thymidylate synthase (TS); assay: Luciferase assay in stably transfected H630-C6 cells (pG3E1-2TBE-Neo); type: cell-based, human
Method: FIGS. 3a-3j. RLU production in H630-C6 cells in response to TS inhibitors. H630-C6 cells were evaluated for luciferase activity in response to treatment with the indicated compounds. The cells were exposed to the compounds at the indicated concentrations for 18 hr and luciferase assays were then performed according to the manufacturer's instructions. The mean values of triplicates or quadruplicates are shown along with the standard derivations.
This example describes the stable transfection of cells with the DNA construct of the present invention. To facilitate selection of stable transformants, we added a neomycin-resistance gene to the pG3E1-2TBE (FIG. 1) to generate a new plasmid termed pG3E1-2TBE-Neo as follows. For stable transfection, pG3E1-2TBE-Neo was linearized at the ampicillin resistance gene with Ase I and was introduced into H630 cells as described above. At 24 hrs post-transfection, the cells were exposed to 400 μg/ml of G418 for two weeks. Individual clones were picked at that time and screened for their ability to induce luciferase in response to treatment with 5-FU, a known TS inhibitor. Following selection with G418 and evaluation for changes in luciferase activity after exposure of the cells to 5-FU, the cloned subline H630/pG3E1-2TBE-Neo-L1-2-C6 (H630-C6) was chosen for further study.
The stably transfected H630-C6 cell line was maintained in RPMI 1640 plus 10% dialyzed FBS and 400 μg/ml of geneticin (G418). For luciferase assays, 2×10^4 cells were seeded in each well of a 24-well plate in RPMI 1640 medium plus 10% FBS without G418 and were allowed to attach at least six hr, followed by drug exposure overnight (approximately 18 hr). The cells were then washed with PBS (137 mM NaCl, 2.7 mM KCl, 4.3 mM Na2HPO4, 1.4 mM KH2PO4, pH 7.4), lysed with Passive Lysis Buffer (Promega, Madison) and assayed for luciferase activity using the Luciferase Assay System (Promega, Madison, Wis.) according to the manufacturer's instructions. Relative light units (RLU) were measured with a Lumat LB 9501 luminometer (EG & G Berthold, Wildbad, Germany).
To test H630-C6 as a tool to identify TS modulators three different classes of compounds, i.e., specific or predominantly specific TS inhibitors, agents that inhibit folate pathways or inhibit TS as well as having other targets, and agents that act through TS unrelated sites of action were evaluated for their ability to induce changes in luciferase activity.

[4] = test system: thymidylate synthase (TS); assay: Evaluation of TS expression by Western blotting in H630-C6 cells; type: cell-based, human; details: H630-C6 cells, 18 hr treatment
Method: FIGS. 4a and 4b. Evaluation of TS expression by Western blotting. […] The cells were harvested for Western blots.
This example describes the relationship between TS levels and luciferase production by various known TS inhibitors. Western blotting was performed as previously described (Dolnick and Black, 1996). Briefly, H630-C6 cells were washed with PBS and extracted with RIPA buffer. 10 μg of total protein was resolved by electrophoresis in a 10% SDS-PAGE and was blotted onto a PVDF membrane (Immobilon-P, Millipore, Bedford, Mass.). The membrane was hybridized with rabbit polyclonal antibody against TS (a gift from Dr. Edward Chu, VA Cancer Center, Yale University, West Haven, Conn.) diluted in SuperBlock Blocking Buffer (Pierce, Rockford, Ill.) plus 0.25% Tween 20 for one hour and hybridized with HRP-linked anti-rabbit secondary antibody (Jackson Laboratories) for an additional one hour. The membrane was detected with SuperSignal West Dura Extended Duration Substrate (Pierce, Rockford, Ill.) and was visualized by exposing the blot to Kodak XAR-5 film. […] The resulting signal was detected as described above.
The induction of luciferase activity depends upon the ability to reduce the amount of endogenous TS bound to the TBEs in the recombinant luciferase transcripts. Dissociation of TS from the luciferase reporter mRNA is expected to be accompanied by the removal of TS from TBEs located in other mRNAs as well, such as endogenous TS mRNA. Therefore, an increase in TS is expected to accompany the increase in luciferase. To verify whether a translational mechanism is involved we evaluated the levels of TS from cells treated with the compounds described above by Western blotting.

[5] = test system: thymidylate synthase (TS); assay: Multiwell luciferase assay in RKO colon tumor cell lines containing pG3E1-2TBE-Neo; details: for % C (effect relative to control without 5-FU), RKO clone 1 / % C (effect relative to control without 5-FU), RKO clone 4 / % C (effect relative to control without 5-FU), RKO clone 7 / RLU RKO clone 1 / RLU RKO clone 4 / RLU RKO clone 7: approximately 18 hr

CCCCCC(=O)NC1CCOC1=O (single isomer, unassigned) [d-enantiomer]
activity of the enantiomers, concluded from the comparison with the racemic mixture [1]: inactive

CCCCCC(=O)N[C@H]1CCOC1=O [1-hexanoyl compound]
activity in down-regulating TS relative to the racemic mixture (d, 1) [1]: twice as active
activity of the enantiomers, concluded from the comparison with the racemic mixture [1]: active

O=c1[nH]cc(F)c(=O)[nH]1 [5-FU, 5-Fluorouracil]
increase in the RLU compared with untreated transfectants [2]: 33±13.8%
concentration at which the increase in RLU output plateaued ([3]; H630-C6 cells, 18 hr exposure): 50 µM
mobility of TS in SDS-PAGE / Western blot [4]: altered the mobility of TS
lowest concentration at which changes in RLU can be detected ([5]; RKO clones, Table 1): 0.1 µM
% C (effect relative to control without 5-FU), RKO clone 1 ([5]; [5-FU] 0.1 μM): 117%
% C (effect relative to control without 5-FU), RKO clone 4 ([5]; [5-FU] 0.1 μM): 121%
% C (effect relative to control without 5-FU), RKO clone 7 ([5]; [5-FU] 0.1 μM): 120%
RLU RKO clone 1 ([5]; [5-FU] 0.1 μM): 1137 RLU
RLU RKO clone 4 ([5]; [5-FU] 0.1 μM): 1078 RLU
RLU RKO clone 7 ([5]; [5-FU] 0.1 μM): 799 RLU
% C (effect relative to control without 5-FU), RKO clone 1 ([5]; [5-FU] 0.5 μM): 135%
% C (effect relative to control without 5-FU), RKO clone 4 ([5]; [5-FU] 0.5 μM): 112%
% C (effect relative to control without 5-FU), RKO clone 7 ([5]; [5-FU] 0.5 μM): 157%
RLU RKO clone 1 ([5]; [5-FU] 0.5 μM): 1314 RLU
RLU RKO clone 4 ([5]; [5-FU] 0.5 μM): 999 RLU
RLU RKO clone 7 ([5]; [5-FU] 0.5 μM): 1043 RLU
% C (effect relative to control without 5-FU), RKO clone 1 ([5]; [5-FU] 2.0 μM): 140%
% C (effect relative to control without 5-FU), RKO clone 4 ([5]; [5-FU] 2.0 μM): 137%
% C (effect relative to control without 5-FU), RKO clone 7 ([5]; [5-FU] 2.0 μM): 168%
RLU RKO clone 1 ([5]; [5-FU] 2.0 μM): 1356 RLU
RLU RKO clone 4 ([5]; [5-FU] 2.0 μM): 1214 RLU
RLU RKO clone 7 ([5]; [5-FU] 2.0 μM): 1119 RLU
% C (effect relative to control without 5-FU), RKO clone 1 ([5]; [5-FU] 10 μM): 179%
% C (effect relative to control without 5-FU), RKO clone 4 ([5]; [5-FU] 10 μM): 172%
% C (effect relative to control without 5-FU), RKO clone 7 ([5]; [5-FU] 10 μM): 243%
RLU RKO clone 1 ([5]; [5-FU] 10 μM): 1738 RLU
RLU RKO clone 4 ([5]; [5-FU] 10 μM): 1527 RLU
RLU RKO clone 7 ([5]; [5-FU] 10 μM): 1614 RLU
% C (effect relative to control without 5-FU), RKO clone 1 ([5]; [5-FU] 50 μM): 148%
% C (effect relative to control without 5-FU), RKO clone 4 ([5]; [5-FU] 50 μM): 175%
% C (effect relative to control without 5-FU), RKO clone 7 ([5]; [5-FU] 50 μM): 156%
RLU RKO clone 1 ([5]; [5-FU] 50 μM): 1438 RLU
RLU RKO clone 4 ([5]; [5-FU] 50 μM): 1559 RLU
RLU RKO clone 7 ([5]; [5-FU] 50 μM): 1560 RLU

Nc1ncn([C@@H]2O[C@H](CO)[C@@H](O)[C@H]2O)c(=O)n1 [AC, 5-azacytidine]
change in luciferase activity (RLU), in words ([3]; H630-C6 cells, 18 hr exposure): no increase
TS protein level by Western blotting [4]: did not alter TS protein levels

O=c1[nH]c(=O)n([C@H]2C[C@H](O)[C@@H](CO)O2)cc1F [FUdR, 5-fluoro-2′-deoxyuridine]
concentration at which the increase in RLU output plateaued ([3]; H630-C6 cells, 18 hr exposure): 0.005 µM
mobility of TS in SDS-PAGE / Western blot [4]: altered the mobility of TS

O=c1[nH]c(=O)n([C@@H]2O[C@H](CO)[C@@H](O)[C@H]2O)cc1F [FUrd, 5-fluorouridine]
concentration at which the increase in RLU output plateaued ([3]; H630-C6 cells, 18 hr exposure): 2.5 µM
mobility of TS in SDS-PAGE / Western blot [4]: altered the mobility of TS

CN[C@@H]1[C@@H](O)[C@@H](O[C@@H]2[C@@H](O)[C@H](O[C@H]3O[C@H]([C@@H](C)O)[C@@H](O)[C@H](O)[C@H]3N)[C@@H](N)C[C@H]2N)OC[C@]1(C)O [G418, geneticin]
TS protein level by Western blotting [4]: inactive

CN(Cc1cnc2nc(N)nc(N)c2n1)c1ccc(C(=O)N[C@@H](CCC(=O)O)C(=O)O)cc1 [MTX, methotrexate]
change in luciferase activity (RLU), in words [3]: increases in luciferase that were comparable
elevation of luciferase activity [3]: approximately two-fold
TS protein level by Western blotting [4]: elevated TS protein levels

O=c1[nH]c(=O)n([C@H]2C[C@H](O)[C@@H](CO)O2)cc1C(F)(F)F [TFT, trifluorothymidine]
concentration at which the increase in RLU output plateaued ([3]; H630-C6 cells, 18 hr exposure): 0.1 µM

Nc1nc2c([nH]c(=S)n2[C@@H]2O[C@H](CO)[C@@H](O)[C@H]2O)c(=O)[nH]1 [TG, 8-thioguanosine]
change in luciferase activity (RLU), in words ([3]; H630-C6 cells, 18 hr exposure): no increase
TS protein level by Western blotting [4]: did not alter TS protein levels

Cc1nc2ccc(CN(C)c3ccc(C(=O)N[C@@H](CCC(=O)O)C(=O)O)s3)cc2c(=O)[nH]1 [ZD1694, Raltitrexed]
elevation of luciferase activity ([3]; 100 μM, H630-C6 cells, 18 hr): approximately two-fold
change in luciferase activity (RLU), in words ([3]; H630-C6 cells, 18 hr exposure): increases in luciferase that were comparable
